Legend:
Hepatitis C virus = assay: Antiviral activity against HCV genotype 1b infected in human Huh7 cells incubated for 3 days and measured by luciferase reporter gene assay; type: functional, organism-based, Hepacivirus hominis; conditions: subtype 1b, Huh-7, 72 h
dengue virus type 2 = assay: Antiviral activity against DENV2 16681 infected in human Huh-7 cells assessed as reduction in viral replication at MOI of 1 to 5 incubated for 3 days; type: functional, organism-based; conditions: Dengue virus, 16681, Huh-7, 72 h
[1] = Cytotoxicity against human Huh-7 cells measured after 2 days by ATPLite-based viability assay; type: toxicity, cell-based; conditions: time 2 day
Chikungunya virus = assay: Antiviral activity against CHIKV S27 infected in human Huh-7 cells at MOI of 0.25 incubated for 2 days and measured by ATPLite assay; type: functional, organism-based; conditions: S27, Huh-7, 48 h
[2] = Stability of compound in fasted state simulated intestinal fluid incubated for 6 hrs and assessed as half-life at 1 uM by LC-MS/MS analysis; type: ADME
[3] = Stability of compound in simulated gastric fluid incubated for 6 hrs at 1 uM and assessed as compound remaining after 6 hrs by LC-MS/MS analysis; type: ADME; conditions: read-out: Stability
[4] = Metabolic stability in human liver microsomes assessed as intrinsic clearance preincubated for 5 mins followed by addition of NADPH and assessed as intrinsic clearance by LC-MS/MS analysis; type: ADME, Microsome; conditions: read-out: CLH
[5] = Stability of compound in simulated gastric fluid incubated for 6 hrs and assessed as half-life at 1 uM by LC-MS/MS analysis; type: ADME
[6] = Tlast in male C57BL/6 mouse at 50 mg/kg, sc measured by LC-MS/MS analysis; type: ADME, organism-based; conditions: in vivo
Sindbis virus = assay: Antiviral activity against SINV AR339 infected in human Huh-7 cells measured by cytopathic effect inhibition assay; type: functional, organism-based; conditions: AR339, Huh-7
[7] = Metabolic stability in mouse liver microsomes preincubated for 5 mins followed by addition of NADPH and assessed as intrinsic clearance by LC-MS/MS analysis; type: ADME, Microsome; conditions: read-out: CLH
[8] = Stability of compound in mouse plasma assessed as half-life incubated for 24 hrs and assessed as half-life at 1 uM by LC-MS/MS analysis; type: ADME, cell-free
[9] = Cmax in male C57BL/6 mouse at 50 mg/kg, po measured by LC-MS/MS analysis; type: ADME, organism-based; parameters: dose 50 mg/kg, route po; conditions: in vivo
[10] = Cmax in male C57BL/6 mouse at 50 mg/kg, sc measured by LC-MS/MS analysis; type: ADME, organism-based; parameters: dose 50 mg/kg, route sc; conditions: in vivo
[11] = Tmax in male C57BL/6 mouse at 50 mg/kg, po measured by LC-MS/MS analysis; type: ADME, organism-based; conditions: in vivo
[12] = AUClast in male C57BL/6 mouse at 50 mg/kg, sc measured by LC-MS/MS analysis; type: ADME, organism-based; conditions: in vivo
[13] = Tlast in male C57BL/6 mouse at 50 mg/kg, po measured by LC-MS/MS analysis; type: ADME, organism-based; conditions: in vivo
[14] = Tmax in male C57BL/6 mouse at 50 mg/kg, sc measured by LC-MS/MS analysis; type: ADME, organism-based; conditions: in vivo
[15] = Stability of compound in human plasma assessed as half-life incubated for 24 hrs and assessed as half-life at 1 uM by LC-MS/MS analysis; type: ADME, cell-free
[16] = AUClast in male C57BL/6 mouse at 50 mg/kg, po measured by LC-MS/MS analysis; type: ADME, organism-based; conditions: in vivo

SMILES | EC50 (Hepatitis C virus) | EC50 (dengue virus type 2) | CC50 at 48 h [1] | EC50 (Chikungunya virus) | EC50 (Sindbis virus) | also measured
CC(C)OC(=O)[C@H](C)NP(=O)(OC[C@H]1O[C@@H](n2ccc(=O)[nH]c2=O)[C@@]2(CCO2)[C@@H]1O)Oc1ccccc1 (stereo partly specified) | 21.4 µM | > 50 µM | > 100 µM | > 100 µM |  | 
CC(C)OC(=O)[C@H](C)NP(=O)(OC[C@H]1O[C@@H](n2ccc(=O)[nH]c2=O)[C@@]2(CCS2)[C@@H]1O)Oc1ccccc1 (stereo partly specified) | 1.17 µM | 26.1 µM | > 100 µM | 22.4 µM |  | 
CC(C)OC(=O)[C@H](C)NP(=O)(OC[C@@]1(F)O[C@@H](n2ccc(=O)[nH]c2=O)[C@@]2(CCO2)[C@@H]1O)Oc1ccccc1 (stereo partly specified) | > 100 µM | > 100 µM | > 100 µM | > 100 µM |  | 
CC(C)OC(=O)[C@H](C)NP(=O)(OC[C@@]1(F)O[C@@H](n2ccc(=O)[nH]c2=O)[C@@]2(CCS2)[C@@H]1O)Oc1ccccc1 (stereo partly specified) | 2.58 µM | 28.3 µM | > 100 µM | 3.25 µM | 6.19 µM | half-life at 1 µM [2]: 0.2 h; remaining at 6 h, 1 µM [3]: 93%; microsomal CLint [4]: > 347 µL/min/mg; half-life at 1 µM [5]: > 6 h; Tlast [6]: 7 h; microsomal CLint [7]: > 347 µL/min/mg; half-life at 1 µM [8]: < 0.4 h; Cmax [9]: 637 ng/mg; Cmax [10]: 2060 ng/mg; Tmax [11]: 2 h; AUClast [12]: 10000 ng·h/g; Tlast [13]: 7 h; Tmax [14]: 2 h; half-life at 1 µM [15]: > 30 h; AUClast [16]: 3050 ng·h/g
CC(C)OC(=O)[C@H](C)N[P@@](=O)(OC[C@@]1(F)O[C@@H](n2ccc(=O)[nH]c2=O)[C@@]2(CCS2)[C@@H]1O)Oc1ccccc1 | 2.2 µM | 29.3 µM | > 100 µM | 3.18 µM | 5.82 µM | 
CC(C)OC(=O)[C@H](C)N[P@](=O)(OC[C@@]1(F)O[C@@H](n2ccc(=O)[nH]c2=O)[C@@]2(CCS2)[C@@H]1O)Oc1ccccc1 | 2.1 µM | 42 µM | > 100 µM | 4.6 µM | 5.93 µM | 
CC(C)OC(=O)C(C)NP(=O)(OC[C@@]1(N=[N+]=[N-])O[C@@H](n2ccc(=O)[nH]c2=O)[C@@]2(CCS2)[C@@H]1O)Oc1ccccc1 (single isomer, unassigned) | 2.8 µM | > 100 µM | > 100 µM | > 100 µM |  | 
CCCCOC(=O)C(C)NP(=O)(OC[C@@]1(F)O[C@@H](n2ccc(=O)[nH]c2=O)[C@@]2(CCS2)[C@@H]1O)Oc1ccccc1 (single isomer, unassigned) | 1.92 µM | 29 µM | > 100 µM | 2.87 µM | 4.64 µM | 
